Results taken from patent US20060205749A1, “Remedy and/or preventive for lung diseases” (priority 2003, published 2006).

Tests used:
[1] = system: neutrophils in BALF, lipopolysaccharide (LPS)-induced pulmonary injury model; assay: Inhibitory effect on increase of neutrophils in LPS-induced pulmonary injury model; format: in vivo; conditions: male BALB/c mice, 0.1 mg/body intratracheally together with LPS, BAL 6 hours after administration
Procedure: Physiological saline containing 25% Alevaire (registered trademark, Azwell Inc., Osaka) which is an inhalant for respiratory organs (administration solvent), or administration solvent dissolving 300 ng/mL of LPS (manufactured by Sigma-Aldrich, Mo., USA) were administered intratracheally to 9-week-old male BALB/c mice (Charles River Japan, Kanagawa) in an amount of 0.1 mL respectively. Then bronchoalveolar lavages (BALS) were performed 6 hours after the intratracheal administration (These administration groups were referred to as a “solvent administration group” and an “LPS administration group”, respectively). […]
The recovered bronchoalveolar lavage fluids (BALFS) were centrifuged at 570×g for 10 minutes at 4° C., followed by removal of supernatants to obtain pellets. […] The total numbers of leukocytes were counted with an automatic blood cell counter Celltac α (Nihon Kohden Corporation, Tokyo). […] Then, the numbers of cells were counted under a microscope (400×).
The number of cells was counted up to 300 in total while macrophages, neutrophils and lymphocytes were distinguished. Then, the ratio of each cell was calculated (equation 1). The number of neutrophils was calculated from the ratio of neutrophils and the total number of leukocytes (equation 2). The inhibition ratio of the increase in number of neutrophils by the administration of Compound (I) was calculated by equation 3. […]

[2] = system: neutrophils in BALF, mainstream of cigarette smoke induced pulmonary injury model; assay: Inhibitory effect on increase of neutrophils in mainstream of cigarette smoke induced pulmonary injury model; format: in vivo; conditions: male CD rats, 0.3 mg/body orally 10 to 12 hours before exposure to mainstream of cigarette smoke, BAL after the exposure for 6 hours
Procedure: Compound (I) was suspended to the concentration of 0.6 mg/mL in a physiological saline containing 25% Alevaire (registered trademark, Azwell, Osaka), which is an inhalant for respiratory organs, (administration solvent). The suspension was used for the test. The suspension is referred to as a “suspension for the administration of Compound (I)”.
First, 0.5 mL of the administration solvent or the suspension for the administration of Compound (I) per kilogram of body weight was administered orally to male CD rats aged 6 to 7 weeks (Charles River Japan, Kanagawa). After 10 to 12 hours, the rats were systemically exposed to mainstream of cigarette smoke (Hi-Lite, Japan Tobacco Inc., Tokyo) using a smoking exposure instrument (M•I•P•S, Osaka). The exposure to the mainstream of cigarette smoke for 5 minutes and then exposure to air for 10 minutes were successively performed by repeating them eight times.
A group subjected to the administration of the administration solvent and exposure to air instead of mainstream of cigarette smoke is referred to as a “solvent administration group”. […]
After the exposure for 6 hours, BALs were performed with Hanks' solution [Hanks' Balanced Salt Solution (Invitrogen Corporation, CA, USA)] […] All of the BALFs were recovered and subjected to treatment as in Test example 1, and then the numbers of neutrophils were measured. […]

`COc1ccc(C(=O)Cc2c(Cl)cncc2Cl)c2c1OC1(CCCC1)O2` [Compound (I), 7-[2-(3,5-dichloro-4-pyridyl)-1-oxoethyl]-4-methoxy-spiro[1,3-benzodioxol-2,1′-cyclopentane]] was tested. Which Number of neutrophils ([1]; mean ± standard error) did it give?
The Number of neutrophils was 0.72 ± 0.22 ×10^5 cells/BALF.

What about the “Inhibition ratio of increase in number of neutrophils” value ([1]; equation 3) of the same compound?
The value was 47%.

What about the “Inhibition ratio of increase in number of neutrophil” value [2] of the same compound?
Its value is 81%.

What about the Number of neutrophils ([2]; mean ± standard error) of the same compound?
Its Number of neutrophils is 0.34 ± 0.13 ×10^5 cells/BALF.
